The values below come from patent US20260098033A1, “NOVEL CRYSTALLINE FORM OF ENAVOGLIFLOZIN, AND PREPARATION METHOD THEREFOR” (DAEWOONG PHARMACEUTICAL CO., LTD., priority 2022, published 2026).

A short description of data set [1]: Evaluation of hygroscopicity (weight change in desiccators at set relative humidity). It counts as physicochemical. Conditions: for Weight change: two days or more, 60 mg. As to the method: The crystalline form A of enavogliflozin in the known Korean Unexamined Patent Application Publication No. 2017-0142904 and the enavogliflozin crystalline form E were taken in amounts of 60 mg each and placed in desiccators at relative humidity of 11%, 33%, 54%, 75%, and 93%, each for two days or more to absorb moisture, and then the weight change was measured.

Data set [2] is described as follows: Stress stability evaluation for heat (60° C.), HPLC purity. Conditions: for Purity: 60° C. It counts as physicochemical. An excerpt:
(§1) To confirm the possibility of commercializing the novel crystalline form E of enavogliflozin of the present invention, the crystalline form A of enavogliflozin in Korean Unexamined Patent Application Publication No. 2017-0142904 was used as a control to test stress stability, and analyzed by high performance liquid chromatography (HPLC), and the results are shown in Tables 4 and 5.

The nature of data set [3]: Stress stability evaluation for moisture (93% RH), HPLC purity. It counts as physicochemical. Conditions: for Purity: 93% RH.
Excerpt: as §1

The nature of data set [4]: Pharmacokinetic study in beagle dogs, oral administration. It counts as in vivo, beagle dog. Conditions: 1 mg/kg. As to the method: Pharmacokinetic profiles of crystalline form A of enavogliflozin and the novel crystalline form E were to be confirmed in beagle dogs. The crystalline form A of enavogliflozin was set as a control, the novel crystalline form E was set as a comparison group, and each of the crystalline form A of enavogliflozin and the novel crystalline form E was orally administered to a male beagle dog at a dose of 1 mg/kg, and blood samples were collected before administration (0 hours), and at 0.083, 0.25, 0.5, 0.75, 1, 1.5, 2, 4, 6, 8, 12, and 24 hours (a total of 13 times). Blood drug concentrations were analyzed by LC-MS/MS using plasma separated from the collected samples, and pharmacokinetic parameters such as the maximum observed plasma concentration (Cmax), an area under the plasma concentration-time curve (AUClast and AUCinf), a time-to-maximum observed plasma concentration (Tmax), and a half-life (T1/2) were calculated and interpreted using the WinNonlin 5.0.1 program.

Setting [5] is: beagle dog, relative to crystalline form A.

Take `OC[C@H]1O[C@@H](c2cc(Cc3ccc(C4CC4)cc3)c(Cl)c3c2CCO3)[C@H](O)[C@@H](O)[C@@H]1O` [Crystalline form A of enavogliflozin, enavogliflozin]: the Weight change in data set [1] (relative humidity 11%) came out at 0%; in data set [1] (relative humidity 33%), 0.5%; in data set [1] (relative humidity 54%), 0.5%; in data set [1] (relative humidity 75%), 0.5%; in data set [1] (relative humidity 93%), 0.5%. Besides, the Purity in data set [2] (Initial, HPLC) amounted to 99.1%; in data set [2] (Week 2, HPLC), 98.8%; in data set [2] (Week 4, HPLC), 99.1%; in data set [2] (Week 8, HPLC), 99.5%; in data set [3] (Initial, HPLC) it was 99.8%; in data set [3] (Week 2, HPLC), 99.8%. Besides, the Purity in data set [3] (Week 4, HPLC) is recorded as 99.8%.

Consider `OC[C@H]1O[C@@H](c2cc(Cc3ccc(C4CC4)cc3)c(Cl)c3c2CCO3)[C@H](O)[C@@H](O)[C@@H]1O` [Crystalline form E of enavogliflozin, enavogliflozin], for which the “Hygroscopicity compared to crystalline form A (in words)” value in data set [1] (relative humidity 11% to 93%) was “more improved hygroscopicity”. Moreover, the Weight change in data set [1] (relative humidity 11%) was found to be 0%; in data set [1] (relative humidity 33%), 0.3%; in data set [1] (relative humidity 54%) it was 0.3%; in data set [1] (relative humidity 75%) it was 0.3%; in data set [1] (relative humidity 93%) it was 0.3%. Further, the “Stress stability, purity and crystalline form (in words)” value in data set [2] (8 weeks at 60° C.) and in data set [3] (4 weeks at 93% RH) was “stably maintained” throughout. The Purity in data set [2] (Initial, HPLC) is given as 99.0%; in data set [2] (Week 2, HPLC) it was 99.2%; in data set [2] (Week 4, HPLC), 99.2%; in data set [2] (Week 8, HPLC), 99.5%; in data set [3] (Initial, HPLC), 99.0%; in data set [3] (Week 2, HPLC), 99.3%. This molecule also yielded a Purity in data set [3] (Week 4, HPLC) of 99.3%. The “PK exposure parameters AUClast and AUCinf compared to crystalline form A (in words)” value in data set [4] (setting [5]) is “increased”. For the same molecule, in data set [4] (setting [5]), the “Tmax reduction compared to crystalline form A” value was at least 1.25 times. This molecule also yielded an AUC(0-inf) in data set [4] (male beagle dog, plasma) of 4820 ng·h/mL. In addition, in data set [4] (male beagle dog, plasma), the AUC(0-t) is 4540 ng·h/mL. This molecule came in with a Cmax in data set [4] (male beagle dog, plasma) of 470 ng/mL. The Tmax in data set [4] (male beagle dog, plasma) came to 3.2 h. In data set [4] (male beagle dog, plasma), this molecule gave a half-life of 5.04 h.

As a reminder, the AUC(0-inf) is total exposure, with the tail of the curve extrapolated. A low value points to less exposure. A word on the AUC(0-t): it is the area under the concentration-time curve up to a stated or last time point. In general, Cmax refers to the highest concentration seen after dosing. What is called Tmax is the time from dosing to the highest level. The half-life is the time needed for the level to fall by half in the phase considered. A higher half-life goes with slow decline.
